Results on one molecule are retold here after ChEMBL document CHEMBL1137498, “Design, synthesis and biological evaluation of novel lipoamino acid-based glycolipids for oral drug delivery” (Bioorg Med Chem, 2007).

The test system of data set [1] is Escherichia coli. Kind of data set: Antibacterial activity against Escherichia coli. The format is functional.
For data set [2], the system named is Klebsiella aerogenes. In words: Antibacterial activity against Klebsiella aerogenes. The format is functional.
In data set [3] the test system is Bacillus subtilis. Kind of data set: Antibacterial activity against Bacillus subtilis. The format is functional.
Data set [4] has as its system Pseudomonas aeruginosa. In words: Antibacterial activity against Pseudomonas aeruginosa. The format is functional.
Data set [5] can be described thus: Apparent permeability across Caco-2 cells. The format is ADME, cell-based. The note with it: human. (In general: Passage across Caco-2 layers is used to estimate intestinal permeability.)
The subject of data set [6] is Staphylococcus aureus. Kind of data set: Antibacterial activity against Staphylococcus aureus. The data set is classed as functional.

The structures appear in SMILES notation. In brackets after ≈: the same amount, converted by molar mass.

For `CCN1CCN(C(=O)N[C@@H](C(=O)N[C@@H]2C(=O)N3[C@@H]2SC(C)(C)[C@@H]3C(=O)O)c2ccccc2)C(=O)C1=O` [PIPERACILLIN], the minimum inhibitory concentration (MIC) (in general, the lowest concentration that inhibits growth of the organism) in data set [1] stood at 4 µg/mL (≈ 7.73 µM); in data set [2] it was 8 µg/mL (≈ 15.5 µM); in data set [3] it was 0.5 µg/mL (≈ 0.966 µM); in data set [4], 4 µg/mL (≈ 7.73 µM); in data set [6], 1 µg/mL (≈ 1.93 µM). The Papp (in general, a coefficient for how fast a substance crosses the barrier) in data set [5] was found to be 0.0325 ×10⁻⁶ cm/s.
